What was measured:
[1] = Challenge of antibody-complex conjugates with excess DTPA (inertness); assay type: physicochemical; details: 1000 fold molar excess DTPA, pH 7.4, one hour; CC-46 conjugate of Y-90 complex
Protocol: The purified antibody-complexes were added to HEPES buffer (N-2-hydroxyethylpiperazine-N'-2-ethanesulfonic acid) at pH 7.4 and treated with an appropriate amount of 0.1M DTPA solution (pH 7.4) to ensure a 1000 fold molar excess of DTPA over complex attached to antibody. After one hour an aliquot was removed and the antibody-complex conjugates were separated from low molecular weight substances using gel-filtration.

[2] = Complex study: percent yttrium complex after addition of excess metal (lability); assay type: physicochemical
Protocol: (§1) A disposable 10 ml plastic (Biorad) column was filled with 1 to 2 ml of water-swelled Sephadex™ C-25 cation exchange resin. The water was pressure eluted to the top of the resin. Fifteen μl of the complex (or more if counts were low) were added to the top of the resin. This was followed by 2 ml of 4:1 (V:V) isotonic saline:conc. ammonium hydroxide solution as an eluent which was allowed to drip into a counting tube. This was also pressure eluted to the top of the resin. An additional 2 ml of the eluent were added and the column pressure eluted to remove all liquid. The dried resin was then placed in a third counting tube and the three tubes counted on a NaI well counter using a Canberra multichannel analyzer linked to a computer. The percent complex was determined by dividing the number of counts in the two elutions by the total counts in the elutions plus the column, all times 100. By this method, uncomplexed yttrium was retained on the column.
The 1:1 complex of yttrium with 1-(p-aminobenzyl)diethylenetriaminepentaacetic acid (ABDTPA), a well known bifunctional chelant used in the literature, and with the ligand of Example 2 (Now Ex. XVI) and Example 12 (now Ex. XVII) were prepared using the techniques described earlier. Several 100 microliter aliquots were then withdrawn into separate centrifuge tubes. Excess metal was added such that the total volume change is minimized and the time noted. One-half hour after metal addition, the percent complex was determined by the Sephadex™ C-25 method and this was compared to the original amount of complex. The percent complex versus added metal gives an indication as to the lability of the ligand-metal complex. Results are given below and are compared to the EDTA-yttrium complex.

[3] = Biodistribution in a rabbit; assay type: in vivo; details: Y-90, ligand 10 times molar excess
Protocol: Muscle was calculated using 46% of body weight.
A rabbit was injected in the same manner as the rats with a formulation having Y-90 with Y at 3×10^-4 M and the ligand of Example 10 at 10 times molar excess.

[4] = In vivo biodistribution of chelates in rats (% dose in organs); details: rat; for % Injected Dose in Liver: 2 hours after i.v. injection; for % dose in the spleen / % dose in the bone / % dose in the blood / % dose in the muscle: 2 hours; for % dose in the bone: 25 times % dose in a femur; for % dose in the blood: blood 6.5% of animal weight; for % dose in the muscle: muscle 46% of body weight
Protocol: Also samarium was injected as samarium chloride in unchelated form.
These animals were placed in cages and fed water and food ad libitum. The animals were acclimated for at least five days before use. Prior to injection of complex, the animals were placed under a heat lamp (15 to 30 minutes) to dilate the tail vein. Then, the animal was placed in a restraining cage, the tail cleaned with an alcohol swipe, and the animal injected (50 to 200 μl) via the tail vein. After injection, the animal was placed in another cage for two hours after which time the animal was sacrificed by cervical dislocation. The animal was then dissected, the parts rinsed with deionized H2 O , patted dry, and weighed into a tared counting vial. Whatever size of injection was made, at least three standards of the same material were prepared and counted with the animal parts.
Complexes were prepared by mixing a solution of ligand and metal then adjusting the pH to 7-8. The amount of metal that was complexed to ligand was determined by cation exchange chromatography. Free metal was retained by the resin, metal in the form of a complex was not.
One-hundred μl of the complexes were injected into the tail vein of three Sprague Dawley rats. Two hours after injection, the rats were killed by cervical dislocation and samples of tissues were taken. The tissues were weighed and the amount of radiation in each tissue determined by measuring the number of counts using a NaI well counter and comparing them to standards. […] The amount in bone was 25 times the % dose in a femur. The examples below differ in the ligand, amount of ligand and amount of metal used. Non-radioactive metal was used to obtain the desired ligand to metal ratios and tracer radioactive metal was used to obtain the biodistribution.

[5] = tested on: osteosarcoma in the right proximal humerus; assay: Treatment of a dog with osteosarcoma; assay type: in vivo; details: Sm-153 complex, ligand 300 times molar excess; I.V. 0.95 mCi Sm-153 per Kg; one week after injection
Protocol: A dog was presented with an osteosarcoma in the right proximal humerus and walked with significant lameness. A complex was prepared using the ligand of Example 10 with a Sm-153 solution. The concentration of Sm was 3×10^-4 M and the ligand was used with a 300 times molar excess. The specific activity of the Sm-153 was 30 mCi/ml. The dog was given an I.V. injection of this complex containing 0.95 mCi of Sm-153 per Kg body weight of the dog.

[6] = Percent complex determination, yttrium complexes (Sephadex C-25 cation exchange); assay type: physicochemical; details: for % Complex (10:1), Y: ligand/metal 10:1, pH 7.4
Protocol: Complexes were made by preparing a 0.0003M yttrium solution in water. (YCl3.6H2 O, 303.26 g/mole; Y(OAc)3, 12.1% H2 O). Radioactive YCl3 (Oakridge National Laboratories) was added to give the desired number of counts. Ten μl of ligand solution (at 0.03M) were added to 990 μl of the Y solution, giving a ligand-to-metal ratio of 1:1. (Ten times the amount of ligand solution was used for a 10:1 ligand to metal ratio.) The pH was then adjusted to 7.4 using microliter quantities of hydrochloric acid or sodium hydroxide. The solution was then tested for the amount of complexed yttrium using the cation exchange method given below.
as §1

[7] = Percent complex determination, samarium complexes (Sephadex C-25 cation exchange); assay type: physicochemical; details: samarium
Protocol: as §1, with “100.” for “100. By this method, uncomplexed yttrium was retained on the column.”
Percent complex determination was made in the same manner as for the yttrium complex.

[8] = metal/ligand molar ratio 250, one-half hour after metal addition
[9] = metal/ligand molar ratio 500, one-half hour after metal addition
[10] = Ho-166, ligand 300 times molar excess
[11] = Sm-153, ligand 10 times molar excess
[12] = Sm-153, ligand 300 times molar excess
[13] = ligand/metal ratio about 1:1 (* footnote)

Nc1ccc(CC(CN(CCN(CC(=O)O)CC(=O)O)CC(=O)O)N(CC(=O)O)CC(=O)O)cc1 (stereo not shown) [ABDTPA, 1-(p-aminobenzyl)diethylenetriaminepentaacetic acid]
yttrium lost from antibody-complex conjugate [1]: over 98% | % Complex ([2]; metal/ligand molar ratio 10, one-half hour after metal addition): 95% | % Complex [2, 8]: 87% | % Complex [2, 9]: 70%

CC(=O)Nc1cc(C(C(=O)O)N(CC(=O)O)CC(=O)O)c(O)c(C(C(=O)O)N(CC(=O)O)CC(=O)O)c1 (stereo not shown) [Example 10, 2,6-BIS{[BIS(CARBOXYMETHYL)-AMINO](CARBOXY)METHYL}-4-(ACETAMIDO)PHENOL]
activity in blood [3]: 0.68% | activity in bone [3]: 59% | activity in liver [3]: 1.1% | activity in muscle [3]: 1.5% | activity in spleen [3]: 0.19% | % Injected Dose in Liver ([4]; Ho complex, ligand 300 times molar excess): 0.26% | % dose in the spleen [4, 10]: 0.007% | % dose in the bone [4, 10]: 52.9% | % dose in the blood [4, 10]: 0.09% | % dose in the muscle [4, 10]: 1.1% | % Injected Dose in Liver ([4]; Sm complex, ligand 300 times molar excess): 0.12% | % Injected Dose in Liver ([4]; Sm complex, ligand/metal 10:1): 1.3% | % dose in the spleen [4, 11]: 0.01% | % dose in the bone [4, 11]: 48.5% | % dose in the blood [4, 11]: 0.18% | % dose in the muscle [4, 11]: 0.73% | % dose in the spleen [4, 12]: 0.005% | % dose in the bone [4, 12]: 52.7% | % dose in the blood [4, 12]: 0.05% | % dose in the muscle [4, 12]: 0.23% | % Injected Dose in Liver ([4]; Y complex, ligand/metal 10:1): 0.39% | dog's gait [5]: noticeably improved | % Complex (10:1), Y [6]: 98%

Nc1cc(CN(CCN(CC(=O)O)CC(=O)O)CC(=O)O)c(O)c(CN(CCN(CC(=O)O)CC(=O)O)CC(=O)O)c1 [Example 12]
% Complex (10:1), Sm ([7]; ligand/metal 10:1): 98% | % Complex, Sm [7, 13]: 98% | yttrium lost from antibody-complex conjugate [1]: approximately 39% | % Complex (10:1), Y [6]: 99% | % Complex, Y [6, 13]: 98% | % Complex [2, 8]: 90% | % Complex [2, 9]: 79%
